Test results as given in PMC6120190, “Identification of two distinct peptide-binding pockets in the SH3 domain of human mixed-lineage kinase 3” (The Journal of Biological Chemistry, 2018).
Each block holds one molecule with its values, some of them ahead of it. No end group written: not given here.

Assays:
MLK3 SH3 domain = experiment: analytical size-exclusion chromatography of MLK3 SH3-MIP fusion proteins (oligomeric state); assay type: binding, human; details: Superdex 200 10/300 GL, 25 mM Tris-HCl, pH 7.4, 500 mM NaCl; for effect of mutation on binding to MLK3 SH3 (fusion proteins, gel filtration): 750 μg/200 μl (Fig. S4); for oligomeric state by size-exclusion chromatography: MIP(1–19) fusion 2 mg/200 μl, MIP(1–13) fusions 750 μg/200 μl
From the text: Two DNA fragments encoding the SH3 domain of MLK3 (UniProt entry Q16584), MLK3 SH3(41–105) and MLK3 SH3(44–103), and four fragments encoding SH3 domain-MIP fusions, MLK3 SH3(41–105)-MIP(1–19), MLK3 SH3(41–105)-MIP(1–13), MLK3 SH3(41–105)-MIP(1–13)W10A, and MLK3 SH3(41–105)-MIP(1–13)R12A, were commercially prepared as gBlocks Gene Fragments. One fragment encoding SH3 domain fused to an NS5A (UniProt entry A0A076MER2) peptide, MLK3 SH3(41–105)-NS5A(2325–2332), was created by amplifying MLK3 SH3(41–105) with T7 promoter primer and a reverse primer (see Table S1). The subsequent insert contained MLK3 SH3(41–105) with the NS5A fragment (aa 2325–2332) at the C terminus. All coding regions were codon-optimized for E. coli expression. DNA fragments were cleaved with NdeI and BamHI-HF (New England Biolabs) and subsequently ligated into a modified version of the pET14b expression vector where the N-terminal His6 tag is followed by a SUMO protease cleavage site. The resulting DNA constructs (verified by sequencing) were transformed into E. coli strain BL21 C41(DE3). Cells were grown at 37 °C in 2× YT medium, which was supplemented with either 50 μg/ml CB or 100 μg/ml ampicillin, protein expression was induced with 0.1–0.3 mM IPTG at an A600 nm of 0.6–0.7, and cells were cultured overnight at 22 °C. Cells were harvested by centrifugation; washed with 200 mM KCl, 50 mM Tris, pH 7.4; and lysed by sonication in 25 mM Tris, pH 7.4, 200 mM KCl, 10 mM MgCl2, 10% glycerol, 1% Triton X-100, 1 mM phenylmethylsulfonyl fluoride (PMSF). Clarified supernatant was loaded onto a 5-ml HisTrap^TM HP Ni-Sepharose column (GE Healthcare), and the column was washed with 25 mM Tris, pH 7.4, 500 mM NaCl supplemented with 10 and 25 mM imidazole. Protein was eluted in the same buffer, which was supplemented with 250 and 500 mM imidazole, and the fractions were pooled together. The His6-SUMO tag was cleaved with SUMO protease while dialyzing against 25 mM Tris, pH 7.4, 500 mM NaCl, 10 mM imidazole, and the tag was removed by loading the sample back onto a nickel column. Collected fractions containing purified protein were concentrated and injected onto an S-200 size-exclusion column (GE Healthcare) equilibrated with 25 mM Tris-HCl, pH 7.4, 500 mM NaCl. To confirm the purity, collected samples were analyzed by SDS-PAGE and detected with Coomassie Brilliant Blue staining. All purified proteins were concentrated and stored at −80 °C.
To determine oligomeric state of several MLK3 SH3 fusion proteins, samples were injected into a Superdex 200 10/300 GL size-exclusion chromatography column (GE Healthcare) in two independent experiments. Two samples, MLK3 SH3(41–105)-MIP(1–19) and MLK3 SH3(41–105), at 2 mg of protein/200-μl injection, were analyzed in the first experiment (Fig. S3). Three additional samples of MLK3 SH3 domain-MIP fusion proteins were analyzed in a second experiment by injecting 750 μg of protein in 200 μl: MLK3 SH3(41–105)-MIP(1–13), MLK3 SH3(41–105)-MIP(1–13)W10A, and MLK3 SH3(41–105)-MIP(1–13)R12A (Fig. S4). Prior to the injections, the column was equilibrated with 25 mM Tris-HCl, pH 7.4, 500 mM NaCl.
Figure S3. Comparison of apo vs peptide-bound MLK3 SH3. Gel filtration chromatography of MLK3 SH3 and MLK3 SH3-MIP(1-19) fusion using Superdex 200 10/300 GL. Both constructs were expressed and purified as His6-SUMO fusions and the tag cleaved with SUMO protease. […] PS corresponds to MW standards (kDa).
Figure S4. W10 and R12 in MIP are critical for intermolecular interaction with MLK3 SH3 in vitro. Three fusion proteins composed of MLK3 SH3(41-105) domain linked via its C-terminus to one of the MIP variant: MIP(1-13) (Blue), MIP(1-13)W10A (Red), or MIP(1-13)R12A (Green), and have been analyzed using gel filtration chromatography. Corresponding sequences of MIP variants are: […] (Blue), […] (Red), and […] (Green). […] The chromatogram corresponding to MLK3 SH3 (Orange) was scaled down by approximately 33%. […]

GST-MLK3 SH3 [1] = experiment: phage ELISA of phage-displayed MIP and variants on GST-MLK3 SH3; assay type: binding, human; details: original clone/MIP, anti-M13 mAb-HRP detection, experiments in duplicate, averaged
Procedure: Figure 1. […] The presence of virions in the supernatant was determined by coating the wells of the microtiter plate with an anti-M13 mAb (anti-M13 Ab). Virions, which were retained in the microtiter plate wells, were detected with anti-M13 mAb conjugated to HRP. […] See also Fig. S1.
Figure 2. […] The MIP sequence, NH2-[…]-COOH, was fused to the N terminus of the pIII capsid protein of bacteriophage M13 ([51]) to facilitate type 3 pentavalent display. Systematic alanine replacements in the peptide were generated by Kunkel mutagenesis ([11]); Ala-1 and Ala-14 were replaced with Val. […] The signal for binding of MIP (WT) to GST-MLK3 SH3 is set as 100%, and other values are normalized to it. […] See also Fig. S2.
Screens for peptide ligands were performed following a protocol published previously ([11]). […] After three rounds of affinity selection, individual phage clones were isolated, and their binding was evaluated via phage ELISA ([11]). […]
All constructs were generated via Kunkel mutagenesis ([11], [57], [58]) and facilitated type 3 (pentavalent) display. […] All constructs were verified by DNA sequencing, and phage clones were evaluated for their binding to the target (GST-MLK3 SH3) via phage ELISA ([11]). […]

GST-MLK4 SH3 [2] = experiment: specificity ELISA, MLK4; assay type: binding, human; details: biotinylated peptide ≈2 μM on NeutrAvidin; GST-SH3 0.15 μM, 1–1.5 h; anti-GST-HRP; triplicate (Fig. 8)
Procedure: (§1) Figure 8. Binding of MIP and NS5A peptides to SH3 domain of other members of MLK subfamily (MLK1–4). To determine whether MIP and NS5A can interact with SH3 domains of MLK1–4 proteins, the purified GST-MLK1–4 SH3 domains were incubated with biotinylated peptides, NS5A peptide ([…]-GGG-K-biotin), MIP ([…]-K-biotin), and MIP-R12A ([…]-K-biotin), immobilized on a NeutrAvidin-coated 96-well ELISA plate. Binding of SH3 domain was detected with anti-GST antibody conjugated to HRP. […] See also Fig. S6.
(§2) Two plasmids, gifts from Dr. Gerardo Morfini, University of Illinois at Chicago, encoding a GST protein fused to either the WT or mutant Y52A of the SH3 domain of MLK3 (UniProt entry Q16584; aa 43–104), respectively, between BamHI and EcoRI sites, were transformed into the Escherichia coli strain Rosetta(DE3)pLysS. DNA fragments encoding the SH3 domain of MLK1 (UniProt entry P80192; aa 52–116), MLK2 (UniProt entry Q02779; aa 16–81), and MLK4 (UniProt entry Q5TCX8; aa 38–102) were commercially prepared as gBlocks® Gene Fragments (Integrated DNA Technologies, Inc.). All coding regions were codon-optimized for E. coli expression. DNA fragments were cleaved with BamHI-HF® and EcoRI-HF® (New England Biolabs) and subsequently ligated into pGex-2T vector. […]

GST-MLK1 SH3 [3] = experiment: specificity ELISA, MLK1; assay type: binding, human; details: biotinylated peptide ≈2 μM on NeutrAvidin; GST-SH3 0.15 μM, 1–1.5 h; anti-GST-HRP; triplicate (Fig. 8)
Procedure: as §1, §2

MLK3 SH3 domain Y52A = experiment: binding to Y52A mutant of MLK3 SH3; set-up: species or system human; details: data not shown
From the text: Two plasmids, gifts from Dr. Gerardo Morfini, University of Illinois at Chicago, encoding a GST protein fused to either the WT or mutant Y52A of the SH3 domain of MLK3 (UniProt entry Q16584; aa 43–104), respectively, between BamHI and EcoRI sites, were transformed into the Escherichia coli strain Rosetta(DE3)pLysS. DNA fragments encoding the SH3 domain of MLK1 (UniProt entry P80192; aa 52–116), MLK2 (UniProt entry Q02779; aa 16–81), and MLK4 (UniProt entry Q5TCX8; aa 38–102) were commercially prepared as gBlocks® Gene Fragments (Integrated DNA Technologies, Inc.). All coding regions were codon-optimized for E. coli expression. DNA fragments were cleaved with BamHI-HF® and EcoRI-HF® (New England Biolabs) and subsequently ligated into pGex-2T vector. The resulting DNA constructs, pGex-MLK1 SH3, pGex-MLK2 SH3, and pGex-MLK4 SH3 (verified by sequencing) were transformed into E. coli strain BL21(DE3).

GST-MLK2 SH3 = experiment: specificity ELISA, MLK2; assay type: binding, human; details: biotinylated peptide ≈2 μM on NeutrAvidin; GST-SH3 0.15 μM, 1–1.5 h; anti-GST-HRP; triplicate (Fig. 8)
Procedure: as §1, §2

GST-MLK3 SH3 [4] = experiment: specificity ELISA, MLK3; assay type: binding, human; details: biotinylated peptide ≈2 μM on NeutrAvidin; GST-SH3 0.15 μM, 1–1.5 h; anti-GST-HRP; triplicate (Fig. 8)
Procedure: as §1, §2

GST-MLK4 SH3 [5] = target: T1, GST-MLK4 SH3 (UniProt Q5TCX8 38-102); experiment: ELISA; details: both partners purified
T1 construct: also called SH3 domain of MLK4
T1 sequence (looked up): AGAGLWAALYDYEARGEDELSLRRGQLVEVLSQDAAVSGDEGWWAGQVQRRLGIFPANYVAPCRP

GST-MLK3 SH3(43–104) = target: T2, GST-MLK3 SH3(43–104) (human, UniProt Q16584 43-104); experiment: ELISA; details: both partners purified
T2 construct: also called GST-MLK3 SH3-WT; SH3 WT
T2 sequence (looked up): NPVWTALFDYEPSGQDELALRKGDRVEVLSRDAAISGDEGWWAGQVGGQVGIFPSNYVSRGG

GST-MLK1 SH3 [6] = target: T3, GST-MLK1 SH3 (UniProt P80192 52-116); experiment: ELISA; details: both partners purified
T3 construct: also called SH3 domain of MLK1
T3 sequence (looked up): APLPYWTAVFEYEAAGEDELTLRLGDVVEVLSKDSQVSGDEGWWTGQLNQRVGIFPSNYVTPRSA

Molecule: AIRINPNGTASRQ [MIP(1–13)W10A, SH3 domain linked via its C terminus to MIP(1–13)W10A]
- effect of mutation on binding to MLK3 SH3 (fusion proteins, gel filtration) (MLK3 SH3 domain): loss of binding to MLK3 SH3
- oligomeric state by size-exclusion chromatography (MLK3 SH3 domain): elute at a volume corresponding to the size of a monomeric fusion protein
- oligomeric state by size-exclusion chromatography (MLK3 SH3 domain; listed as MIP(1-13)W10A): elute at fraction corresponding to the size of a monomeric fusion protein

Molecule: AIRINPNGTWSAQ [MIP(1–13)R12A, SH3 domain linked via its C terminus to MIP(1–13)R12A]
- effect of mutation on binding to MLK3 SH3 (fusion proteins, gel filtration) (MLK3 SH3 domain): loss of binding to MLK3 SH3
- oligomeric state by size-exclusion chromatography (MLK3 SH3 domain): elute at a volume corresponding to the size of a monomeric fusion protein
- oligomeric state by size-exclusion chromatography (MLK3 SH3 domain; listed as MIP(1-13)R12A): elute at fraction corresponding to the size of a monomeric fusion protein

Molecule: AIRINPNGTWSRQ [MLK3 SH3(41–105)-MIP(1–13), SH3 domain linked via its C terminus to truncated WT ligand]
- oligomeric state by size-exclusion chromatography (MLK3 SH3 domain): eluted as a higher order oligomer

Molecule: H-IRINPNGTWSRQ-OH [single clone displaying a 12-mer peptide from ANL7 library]
- binding to GST-MLK3 SH3 in phage ELISA (GST-MLK3 SH3 [1]): bound to the wildtype (WT) form of the MLK3 SH3 domain

Molecule: KKAPTPPPRRRRGGGK [NS5A peptide, reference compound]
- binding to MLK4 SH3 (GST-MLK4 SH3 [2]): could bind
- binding to MLK1 SH3 (GST-MLK1 SH3 [3]): could bind
- effect of SH3 mutation Y52A on peptide binding (MLK3 SH3 domain Y52A): disrupts binding
- binding to MLK2 SH3 (GST-MLK2 SH3): could bind
- binding to MLK3 SH3 (GST-MLK3 SH3 [4]): could bind

- binding result (GST-MLK4 SH3 [5]): binds
- binding result (GST-MLK3 SH3(43–104)): binds
- binding result (GST-MLK1 SH3 [6]): binds
B1: biotinylated MIP (AIRINPNGTWSRQAETVES-K-biotin) (peptide)
peptide: AIRINPNGTWSRQAETVESK
modifications: biotin on the added C-terminal K
notes: also called immobilized MIP; biotinylated MIP peptide; source: synthetic peptide
